Assay results from ChEMBL document CHEMBL1201862, “PubChem BioAssay data set” (2004).
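96-well plates; 48 h exposure; 5 concentrations. Endpoints by linear interpolation between flanking doses. Not reached: highest tested concentration assigned. GI50 marks 50% less growth.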 The source made the active and inactive calls. Rule as the data show it: active = GI50 up to about 1.1 µM and inactive = higher.

Experiments:
Assay in all cases: NCI tumour cell line growth inhibition, 48 h
[1] = system: RPMI-8226
[2] = system: CAKI-1
[3] = system: HL-60
[4] = system: COLO 205
[5] = system: IGROV-1
[6] = system: SR
[7] = system: U-251
[8] = system: SN12C
[9] = system: SF-539
[10] = system: MCF7
[11] = system: HOP-62
[12] = system: TK-10
[13] = system: UACC-62
[14] = system: SNB-19
[15] = system: SK-OV-3
[16] = system: NCI-H460
[17] = system: SF-268
[18] = system: K562
[19] = system: LOX IMVI
[20] = system: HOP-92

Measured: GI50

COc1ccc(N2C(=O)C3c4[nH]c5ccc(F)cc5c4C4CCC(C(C)(C)C)CC4C3C2=O)cc1 (configuration not stated)
inactive: [1] > 10 µM | [2] > 10 µM | [3] > 10 µM | [4] > 10 µM | [5] > 10 µM | [6] > 10 µM | [7] 5.02 µM | [8] > 10 µM | [9] 6.35 µM | [10] > 10 µM | [11] 7.23 µM | [12] 9.38 µM | [13] 7.43 µM | [14] > 10 µM | [15] > 10 µM | [16] 5.07 µM | [17] 8.28 µM

O=[N+]([O-])c1ccc(S(=O)(=O)N=Ic2ccccc2)cc1
inactive: [1] > 100 µM | [2] > 100 µM | [3] > 100 µM | [18] > 100 µM | [4] > 100 µM | [5] > 100 µM | [6] > 100 µM | [7] > 100 µM | [8] > 100 µM | [9] > 100 µM | [10] > 100 µM | [19] > 100 µM | [11] > 100 µM | [12] > 100 µM | [13] > 100 µM | [14] > 100 µM | [15] > 100 µM | [20] > 100 µM | [16] > 100 µM | [17] > 100 µM

NCc1ccccc1-c1c2nc(c(-c3ccccc3CN)c3ccc([nH]3)c(-c3ccccc3CN)c3nc(c(-c4ccccc4CN)c4ccc1[nH]4)C=C3)C=C2
inactive: [1] 12.4 µM | [3] 14.5 µM | [18] 14.5 µM | [4] 29.8 µM | [5] 23.7 µM | [6] > 10 µM | [7] 18.5 µM | [8] 18.7 µM | [19] 19.7 µM | [11] 22.1 µM | [12] 27.5 µM | [13] 24.9 µM | [14] 18.6 µM | [20] 7.08 µM | [16] 19.1 µM | [17] 20.8 µM

O=C1C(=O)N(C2CCCCC2)C(=S)N1C1CCCCC1
inactive: [1] > 100 µM | [2] > 100 µM | [3] > 100 µM | [18] > 100 µM | [4] > 100 µM | [5] > 100 µM | [6] > 100 µM | [7] > 100 µM | [8] > 100 µM | [9] > 100 µM | [19] > 100 µM | [11] > 100 µM | [12] > 100 µM | [13] > 100 µM | [14] > 100 µM | [15] > 100 µM | [20] > 100 µM | [16] > 100 µM | [17] > 100 µM

CCOC(=O)c1csc(NC(=O)CN2CCCCC2)n1
inactive: [1] > 100 µM | [2] > 100 µM | [3] > 100 µM | [18] > 100 µM | [4] > 100 µM | [5] > 100 µM | [7] > 100 µM | [9] > 100 µM | [10] > 100 µM | [19] > 100 µM | [11] > 100 µM | [12] > 100 µM | [13] > 100 µM | [14] > 100 µM | [15] > 100 µM | [20] > 100 µM | [16] > 100 µM | [17] > 100 µM

Cc1cc(C)c(-n2[nH]c(=O)n(C)c2=O)c(C)c1
inactive: [1] > 100 µM | [2] > 100 µM | [3] > 100 µM | [18] > 100 µM | [4] > 100 µM | [5] > 100 µM | [6] > 100 µM | [7] > 100 µM | [8] > 100 µM | [9] > 100 µM | [10] > 100 µM | [19] > 100 µM | [12] > 100 µM | [13] > 100 µM | [14] > 100 µM | [15] > 100 µM | [16] > 100 µM | [17] > 100 µM

CC(C)(C)N(Cc1ccoc1)C(=O)/C=C\[S+]([O-])c1ccccc1 (configuration not stated)
inactive: [1] 14.4 µM | [2] 14.5 µM | [3] 12.7 µM | [18] 26.6 µM | [4] 22.3 µM | [5] 15 µM | [6] 6.44 µM | [7] 15.5 µM | [8] 20.9 µM | [9] 21 µM | [10] 15.6 µM | [19] 5.45 µM | [11] 16.6 µM | [12] 44.2 µM | [13] 20 µM | [14] 28.3 µM | [15] 24 µM | [20] 15 µM | [17] 30.1 µM
